# What was measured:
# Assay in all cases: Bliss excess, mean over the matrix (fraction); higher = more synergy
# A704 (Kidney Carcinoma) = tested on: A704 (Kidney Carcinoma)
# Method in brief: (§1)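 Cell lines in DMEM/F12 or RPMI with 10% FBS were plated in 1536-well plates, held 24 hours at 37°C, 5% CO2, then given two-drug dose matrices for 72 hours (DMSO typically 0.2%). Viability was read by CellTiter-Glo 2.0 luminescence and scaled as inhibition from 0 (vehicle wells) to 1 (blank wells). Combination Emax is the second-highest inhibition in the matrix; Bliss excess is observed combination effect minus expected EA + EB − EA·EB, EA and EB being single-agent effects.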
# EW-18 (Ewing's Sarcoma) = tested on: EW-18 (Ewing's Sarcoma)
# Method in brief: as §1
# [1] = tested on: JHH-7 (Hepatocellular Carcinoma)
# Method in brief: as §1
# [2] = tested on: KINGS-1 (Low Grade Glioma)
# Method in brief: as §1
# [3] = tested on: KLE (Endometrial Carcinoma)
# Method in brief: as §1
# [4] = tested on: KYSE-50 (Esophageal Squamous Cell Carcinoma)
# Method in brief: as §1
# [5] = tested on: LC4-1 (B-Lymphoblastic Leukemia)
# Method in brief: as §1
# NB7 (Neuroblastoma) = tested on: NB7 (Neuroblastoma)
# Method in brief: as §1
# [6] = tested on: NCI-H1573 (Lung Adenocarcinoma)
# Method in brief: as §1
# [7] = tested on: NCI-H2405 (Lung Adenocarcinoma)
# Method in brief: as §1
# [8] = tested on: NCI-H322M (Lung Adenocarcinoma)
# Method in brief: as §1
# [9] = tested on: NCI-H513 (Other Solid Carcinomas)
# Method in brief: as §1
# [10] = tested on: NCI-N87 (Gastric Carcinoma)
# Method in brief: as §1
# [11] = tested on: OCUB-M (Breast Carcinoma)
# Method in brief: as §1
# [12] = tested on: OVISE (Ovarian Carcinoma)
# Method in brief: as §1
# [13] = tested on: PFSK-1 (Other Solid Carcinomas)
# Method in brief: as §1
# [14] = tested on: SCC-3 (B-Cell Non-Hodgkin's Lymphoma)
# Method in brief: as §1
# [15] = tested on: SCC-9 (Oral Cavity Carcinoma)
# Method in brief: as §1
# [16] = tested on: SNU-C1 (Colorectal Carcinoma)
# Method in brief: as §1
# EW-13 (Ewing's Sarcoma) = tested on: EW-13 (Ewing's Sarcoma)
# Method in brief: as §1
SMILES,Bliss excess (A704 (Kidney Carcinoma)),Bliss excess (EW-18 (Ewing's Sarcoma)),Bliss excess [1],Bliss excess [2],Bliss excess [3],Bliss excess [4],Bliss excess [5],Bliss excess (NB7 (Neuroblastoma)),Bliss excess [6],Bliss excess [7],Bliss excess [8],Bliss excess [9],Bliss excess [10],Bliss excess [11],Bliss excess [12],Bliss excess [13],Bliss excess [14],Bliss excess [15],Bliss excess [16],Bliss excess (EW-13 (Ewing's Sarcoma))
"CN(C)CCCOc1ccc(-c2ccc3ncc4c(c3c2)n(C2CCOCC2)c(=O)n4C)cn1 [AZD0156] + O=C(c1cc(Cc2n[nH]c(=O)c3ccccc23)ccc1F)N1CCN(C(=O)C2CC2)CC1 [Olaparib] (first compound max 3 µM, partner max 3 µM)",0.026,0.172,0.117,-0.0057,-0.0506,0.0152,0.25,0.115,0.0002,-0.0471,0.0142,-0.0347,-0.0568,-0.0091,-0.0084,0.0954,0.28,0.0741,-0.0049,
"C=CCn1c(=O)c2cnc(Nc3ccc(N4CCN(C)CC4)cc3)nc2n1-c1cccc(C(C)(C)O)n1 [AZD1775] + C1CN(CCC1(C(=O)N[C@@H](CCO)C2=CC=C(C=C2)Cl)N)C3=NC=NC4=C3C=CN4 [Capivasertib] (first compound max 3 µM, partner max 3 µM)",-0.0259,0.0244,-0.0045,-0.0687,-0.0627,-0.0306,-0.0233,-0.0648,-0.0318,-0.0891,0.0152,-0.0372,-0.0067,-0.0436,-0.101,-0.0268,0.0613,0.0038,-0.0869,
"CN(CCO)CC[C@H](CSc1ccccc1)Nc1ccc(S(=O)(=O)NC(=O)c2ccc(N3CCC([C@@H](O)c4ccccc4-c4ccc(Cl)cc4)CC3)cc2)cc1S(=O)(=O)C(F)(F)F [AZD4320] + Cn1cnc2c(F)c(Nc3ccc(Br)cc3Cl)c(C(=O)NOCCO)cc21 [Selumetinib] (first compound max 1 µM, 7x7, partner max 3 µM)",-0.075,0.0109,-0.0214,0.0328,0.0087,0.0405,0.0831,0.0397,0.0027,0.0717,0.0818,0.0445,0.0201,0.0206,0.024,0.057,0.0222,0.005,,-0.0149
"COc1nnc2ccc(N3CCC(c4ccc(OCCN5CCN(C)C(=O)[C@H]5C)cc4)CC3)nn12 [AZD5153] + CN(CC[C@H](CSC1=CC=CC=C1)NC2=C(C=C(C=C2)S(=O)(=O)NC(=O)C3=CC=C(C=C3)N4CCC(CC4)[C@H](C5=CC=CC=C5C6=CC=C(C=C6)Cl)O)S(=O)(=O)C(F)(F)F)CCO [AZD4320] (first compound max 1 µM, 7x7, partner max 1 µM)",0.0754,0.0033,,,0.0847,0.0999,,,0.0178,0.0342,0.0066,-0.0177,,,0.0504,0.0145,0.0235,,,-0.0243
"Cc1c2c(nn1C)CSCc1cc(n(C)n1)CSc1cc(c3ccccc3c1)OCCCc1c(C(=O)O)n(C)c3c-2c(Cl)ccc13 [AZD5991] + C1CN(CCC1(C(=O)N[C@@H](CCO)C2=CC=C(C=C2)Cl)N)C3=NC=NC4=C3C=CN4 [Capivasertib] (first compound max 1 µM, 7x7, partner max 3 µM)",-0.065,,-0.0118,-0.0468,-0.01,-0.0036,0.0364,-0.0133,0.0057,-0.0402,0.0198,-0.0056,-0.0516,0.0321,-0.0651,0.0384,0.102,-0.0113,-0.0004,0.0256
"Cc1c2c(nn1C)CSCc1cc(n(C)n1)CSc1cc(c3ccccc3c1)OCCCc1c(C(=O)O)n(C)c3c-2c(Cl)ccc13 [AZD5991] + CCN(CCO)CCCOc1ccc2c(Nc3cc(CC(=O)Nc4cccc(F)c4)[nH]n3)ncnc2c1 [AZD2811] (first compound max 1 µM, 7x7, partner max 1 µM)",-0.0462,-0.0209,0.0144,-0.0253,-0.0923,,-0.0464,0.0679,-0.0145,-0.0164,-0.0057,-0.0026,-0.0104,-0.0116,0.0535,-0.0393,0.0604,,-0.0256,0.032
"CS(=O)(=O)CCNCc1ccc(-c2ccc3ncnc(Nc4ccc(OCc5cccc(F)c5)c(Cl)c4)c3c2)o1 [Lapatinib] + NC1(c2ccc(-c3nc4ccn5c(=O)[nH]nc5c4cc3-c3ccccc3)cc2)CCC1 [MK-2206] (first compound max 10 µM, 7x7, partner max 10 µM)",,,-0.036,0.032,,,-0.0073,0.0221,-0.0055,-0.111,,-0.0369,0.0091,0.142,0.0286,-0.0286,,0.0038,-0.0184,
"CC(=O)c1c(C)c2cnc(Nc3ccc(N4CCNCC4)cn3)nc2n(C2CCCC2)c1=O [Palbociclib] + CN(CC[C@H](CSC1=CC=CC=C1)NC2=C(C=C(C=C2)S(=O)(=O)NC(=O)C3=CC=C(C=C3)N4CCC(CC4)[C@H](C5=CC=CC=C5C6=CC=C(C=C6)Cl)O)S(=O)(=O)C(F)(F)F)CCO [AZD4320] (first compound max 10 µM, 7x7, partner max 1 µM)",-0.0376,-0.0118,,,-0.0276,-0.0228,,,-0.109,-0.0614,-0.0711,-0.0718,,,-0.0207,0.016,-0.0046,,,-0.121
"COc1cccc(OCCCN)c1-c1cc(Nc2cnc(C#N)cn2)n[nH]1 [Prexasertib] + CN(C)CCCOc1ccc(-c2ccc3ncc4c(c3c2)n(C2CCOCC2)c(=O)n4C)cn1 [AZD0156] (first compound max 1 µM, 7x7, partner max 1 µM)",0.0033,0.021,-0.021,-0.0927,0.002,0.0138,-0.0113,-0.0194,-0.0309,-0.0037,0.011,-0.0071,-0.0381,-0.022,0.0209,,0.0103,-0.0159,-0.0336,0.0557
"COc1cccc(OCCCN)c1-c1cc(Nc2cnc(C#N)cn2)n[nH]1 [Prexasertib] + C[C@@H]1COCCN1C2=NC(=NC(=C2)C3(CC3)[S@](=N)(=O)C)C4=C5C=CNC5=NC=C4 [AZD6738] (first compound max 1 µM, 7x7, partner max 10 µM)",0.0224,-0.0548,0.0381,0.0426,-0.0393,0.0034,-0.0033,-0.0018,0.0055,0.0046,-0.0367,-0.0104,-0.0253,0.0421,0.0341,,-0.0201,0.0803,-0.0078,0.0572
"COc1cccc(OCCCN)c1-c1cc(Nc2cnc(C#N)cn2)n[nH]1 [Prexasertib] + Cc1cc2ncnn2cc1Nc1ncc2c(n1)n(C1CCOCC1)c(=O)n2C [AZD7648] (first compound max 1 µM, 7x7, partner max 10 µM)",0.0144,-0.0679,-0.0143,-0.0464,0.0213,-0.0296,-0.0209,-0.0195,0.0058,-0.0386,-0.0083,0.0134,-0.0119,-0.0611,-0.0333,,-0.0082,0.0092,-0.0873,-0.015
"COc1cccc(OCCCN)c1-c1cc(Nc2cnc(C#N)cn2)n[nH]1 [Prexasertib] + O=C(c1cc(Cc2n[nH]c(=O)c3ccccc23)ccc1F)N1CCN(C(=O)C2CC2)CC1 [Olaparib] (first compound max 1 µM, 7x7, partner max 10 µM)",-0.0973,-0.0677,-0.0795,-0.0979,0.0514,-0.117,-0.0432,-0.113,0.0418,-0.0339,-0.126,-0.0162,-0.127,0.0018,-0.0578,,-0.0133,-0.0181,-0.153,-0.0562
"COc1cc2c(cc1OCCCCCOc1cc3c(cc1OC)C(=O)N1C=C(C)C[C@H]1C=N3)N=C[C@@H]1CC(C)=CN1C2=O [SG3199] + O=C(c1cc(Cc2n[nH]c(=O)c3ccccc23)ccc1F)N1CCN(C(=O)C2CC2)CC1 [Olaparib] (first compound max 0.001 µM, 7x7, partner max 10 µM)",-0.025,-0.0629,-0.0368,-0.0434,0.0057,-0.0319,-0.0371,-0.0474,-0.0212,-0.043,-0.0014,-0.0325,-0.0477,-0.0502,-0.0431,,0.0586,-0.0352,-0.0446,-0.0415
"CCc1c2c(nc3ccc(O)cc13)-c1cc3c(c(=O)n1C2)COC(=O)[C@]3(O)CC [SN-38] + CN(C)CCCOc1ccc(-c2ccc3ncc4c(c3c2)n(C2CCOCC2)c(=O)n4C)cn1 [AZD0156] (first compound max 0.3 µM, 7x7, partner max 1 µM)",-0.0533,-0.0607,0.0084,-0.0185,-0.0034,-0.0053,-0.0587,-0.0027,-0.0359,-0.0082,0.15,0.0021,-0.0447,0.126,-0.0355,,0.0372,0.0484,-0.0125,-0.0589
"C[C@@H](c1ccc2nccn2c1)n1nnc2ncc(-c3cnn(C)c3)nc21 [Savolitinib] + CN(CC[C@H](CSC1=CC=CC=C1)NC2=C(C=C(C=C2)S(=O)(=O)NC(=O)C3=CC=C(C=C3)N4CCC(CC4)[C@H](C5=CC=CC=C5C6=CC=C(C=C6)Cl)O)S(=O)(=O)C(F)(F)F)CCO [AZD4320] (first compound max 1 µM, 7x7, partner max 1 µM)",-0.0766,-0.0221,,,-0.0664,-0.011,,,-0.0473,-0.0553,-0.0487,-0.0473,,,-0.0472,0.0076,-0.0083,,,-0.0577
